Test results taken from BindingDB's records for doi:10.1016/j.bmcl.2010.12.114 (Ligand Pharmaceuticals, 2011).

Test: Inhibition of human CXCR3 by chemotaxis assay

- IC50: 23 nM
SMILES: C[C@H]1CN(c2ncc(C(=O)NCc3ccc(F)c(F)c3)cc2Cl)CCN1C1CCN(Cc2ccc(Cl)cc2)CC1 [(S)-5-chloro-6-(4-(1-(4-chlorobenzyl)piperidin-4-yl)-3-methylpiperazin-1-yl)-N-(3,4-difluorobenzyl)nicotinamide]
